Reference: US11471460B2, “Autophagy modulators for use in treating cancer” (The United States of America,as represented by the …, priority 2017, dated 2022)
“Also recorded” adds a separate entry of the source.

Assays:
[1] = test system: melanoma A375 cells; experiment: Tumor formation by pretreated A375 cells in nude mice; format: in vivo
From the text: Viability was quantified by trypan blue dye exclusion method. The images confirmed the presence of cytoplasmic vacuolization occurred only in the compound 1 treated cells. […] The left flank received cells pretreated with vehicle and the right flank received cells pretreated with compound 1. At 27 days later, mice were photographed, and tumors excised. […] Error bars indicate the SEM for 5 tumors.
To determine whether or not compound 1 could inhibit progression of a tumor that arose from autophagy-dependent cancer cells, melanoma A375 cells were pretreated with either vehicle or compound 1 and then assayed for their ability to produce a tumor. Pretreatment consisted of culturing A375 cells for 8 hours with 10 μM compound 1. The cells were then recovered by trypsinization and their viability confirmed by trypan blue exclusion. […] The cells were then inoculated subcutaneously into the flanks of immuno-compromised mice.

[2] = test system: cathepsin D (CTSD) in U2OS cells; experiment: Cathepsin D maturation, Western immuno-blotting; format: cell-based, human; conditions: 4 h
Experimental: Mature and immature cathepsin D (CTSD), LC3-I, LC3-II, and β-actin proteins were identified by Western immuno-blotting, under the same conditions, and detected with specific antibodies and by co-fractionation with molecular mass markers (kDa). Cathepsin D maturation via proteolysis requires acidity.
Total cell lysates were prepared (in 4× dye). Proteins were fractionated at 200V in a NuPAGE 4-12% bis-tris polyacrylamide gel (NP0323, Novex) using NuPAGE MES running buffer (NP0002, Novex) and then stained with PageBlue (24260, Thermo Scientific) in order to quantify the relative amount of histones in each sample. […] Proteins were wet-transferred onto nitrocellulose membranes (162-0112, Bio-Rad) using NuPAGE transfer buffer (NP-0006-1, Novex) for 1 hour at 30V. Membranes were then stained with dilute Ponceau S solution, blocked in 5% milk for 30 minutes at room temperature, and incubated overnight at 4° C. in primary antibody. Membranes were washed with phosphate buffered saline with tween 20 (PBST) three times for 10 min. each, incubated with secondary antibodies in 5% milk for 1 hour, washed three times with PBST again, covered in ECL (SuperSignal West Pico chemiluminescent substrate, 34080, Thermo Scientific) and exposed to film (HyBlot ES, E3218, Denville Scientific).

[3] = test system: osteosarcoma U2OS cells; experiment: U2OS cell viability (cellular ATP); format: cell-based, human
From the text: These effects are dependent on the compound selected, its concentration and the length of time cells are exposed to the compound.

For `C1=Nc2ccccc2/C1=C/NNc1nc(Nc2ccccc2)nc(N2CCOCC2)n1` [compound 1], which “Tumor xenograft formation by pretreated cells” value ([1]; A375 cells pretreated 8 hours with 10 μM, subcutaneous) is on record?
The value was “decidedly less efficient; also recorded: inhibited their ability to form a tumor”.

What about the “Ill effects on mice” value ([1]; mouse weight) of the same compound?
Its value is “no ill effects on mice”.

And the “Cellular level of mature cathepsin D relative to vehicle treated cells” value [2]?
Its value is “about 50%”.

What about the “Efficacy at reducing U2OS viability relative to HCQ or CQ” value [3] of the same compound?
Its value is 13 times.
